We go through 64 compounds from ChEMBL document CHEMBL3507680, “University of Dundee, Gates Library screen for HepG2 cell viability”.

A short description of the data set: Human HepG2 cell viability assay in 384 well format. The data set is classed as toxicity, cell-based. On the set-up: dose 125 nL, time 70.5 hour; concentration not given beside the values. Conditions: HepG2 cells, read-out: Inhibition.

Turning to `O=C(c1ccco1)N1C[C@H]2CCCN(C(=O)c3ccsc3)[C@H]2C1`, the cytotoxicity at 70.5 h is -16.2%.

Turning to `COCC(=O)N1CCC2(CC1)NC(=O)[C@H]1CN(C(=O)N(C)C)C[C@H]12`, the cytotoxicity at 70.5 h is -7.64%.

Consider `Cc1ccc(CN2C[C@H]3CN(CC4CCN(C)CC4)C(=O)[C@H]3C2)s1`, for which the cytotoxicity at 70.5 h was -12.7%.

As to `O=C(C1CCCC1)N1C[C@H]2CNC[C@H]2C1`, the cytotoxicity at 70.5 h was -8.49%.

Consider `O=C(Cc1cccc(F)c1)N1C[C@H]2CN(Cc3cccnc3)C[C@H]2C1`, for which the cytotoxicity at 70.5 h is -12%.

In the case of `COc1ccc(CN2Cc3[nH]nc(C(=O)N(C)C)c3C2)cc1`, the cytotoxicity at 70.5 h was -11.8%.

As to `O=C(NCc1ccco1)[C@H]1C[C@H]2OCC[C@H]2N(C(=O)c2ccnnc2)C1`, the cytotoxicity at 70.5 h is -12.6%.

Consider `O=C(NCC1CC1)C1CN(Cc2cccs2)Cc2ccnn2C1` (centres undefined), for which the cytotoxicity at 70.5 h is -13.4%.

For `O=C(c1ccco1)N1CCOCC2(C1)CN(c1ccoc1)C(=O)CO2` (centres undefined), the cytotoxicity at 70.5 h is -10%.

Regarding `O=C(NC1CC1)N1CCOCC2(C1)CN(c1ccccc1)C(=O)CO2` (centres undefined), the cytotoxicity at 70.5 h is -9.6%.

Consider `CC(C)CNC(=O)c1cc2c(s1)CCN2S(C)(=O)=O`, for which the cytotoxicity at 70.5 h was -10.9%.

Turning to `CCOCC1CN(C(=O)N2CCCC2)Cc2cnn(C)c21` (centres undefined), the cytotoxicity at 70.5 h was -6.47%.

Regarding `CS(=O)(=O)N1CCc2sc(C(=O)NCc3ccncc3)cc21`, the cytotoxicity at 70.5 h was -7.65%.

Consider `Cc1occc1C(=O)N1C[C@@H](C(=O)NCc2ccco2)C[C@H]2OCC[C@H]21`, for which the cytotoxicity at 70.5 h is -10.4%.

Regarding `CCOCC1CN(C(=O)C2=CCCC2)Cc2cnn(C)c21` (centres undefined), the cytotoxicity at 70.5 h was -14.7%.

Consider `CN1CCN(C(=O)[C@@H]2C[C@@H]3CCN(c4cccc(F)c4)C[C@H]3O2)CC1`, for which the cytotoxicity at 70.5 h was -11.9%.

On to `CCOCC1CN(C(=O)c2cccc(C)n2)Cc2cnn(C)c21` (centres undefined), for which the cytotoxicity at 70.5 h is -11.5%.

Take `Cc1ccc(C(=O)N2CCO[C@H]3[C@H](OCCN(C)C)CC[C@@H]32)cn1`: the cytotoxicity at 70.5 h is -1.99%.

As to `CN1CCN(C[C@@H]2OC[C@H]3CN(Cc4ccncc4)CC[C@H]32)CC1`, the cytotoxicity at 70.5 h turned out to be 0.409%.

On to `CN(C)C(=O)COCC1CN(CC2CCOCC2)Cc2ncn(C)c21` (centres undefined), for which the cytotoxicity at 70.5 h is -1.41%.

Regarding `CN1CCN(C[C@H]2OC[C@@H]3CCN(Cc4ccsc4)C[C@@H]32)CC1`, the cytotoxicity at 70.5 h was -0.843%.

On to `Cc1ccc(N2CCc3ncc(CNc4ccccn4)n3CC2)nn1`, for which the cytotoxicity at 70.5 h is -1.74%.

With `CN(C)CCN1Cc2ncn(C)c2C(COCC(=O)N(C)C)C1` (centres undefined), the cytotoxicity at 70.5 h is -8.47%.

With `CC1=N[C@@]2(CC[C@@H]3CN(C(=O)NCC(C)C)C[C@@H]32)C(=O)N1C`, the cytotoxicity at 70.5 h is -0.53%.

As to `Cc1noc([C@@]23CCO[C@@H]2CCN(C(=O)c2cc(C)c(C)s2)C3)n1`, the cytotoxicity at 70.5 h is -0.38%.

With `Cc1ccc(C(=O)N2CCN3C[C@H](Oc4cncnc4)C[C@H]3C2)cn1`, the cytotoxicity at 70.5 h is -0.158%.

In the case of `O=C(c1ccncc1)N1CCN2C[C@H](Oc3cncnc3)C[C@H]2C1`, the cytotoxicity at 70.5 h stood at 1.56%.

`CC(C)N1CCC2(CCCNC2)C1=O` (centres undefined): the cytotoxicity at 70.5 h was -14.6%.

In the case of `O=C(c1ccccc1)N1CCOC2(CCN(Cc3cccs3)CC2)C1`, the cytotoxicity at 70.5 h was 12.2%.

On to `CC(=O)N1CCC12CCN(Cc1ccco1)CC2`, for which the cytotoxicity at 70.5 h came to 19.9%.

Turning to `COCCN1CCC2(CC1)CN(C(=O)c1ccco1)CCO2`, the cytotoxicity at 70.5 h came out at 12.3%.

Consider `O=C(c1ccncc1F)N1CC2CC1(C(=O)N1CCCC1)C2`, for which the cytotoxicity at 70.5 h was -11.2%.

`COCC(=O)N1CCOCC2(CCN(Cc3cccs3)C2)C1` (centres undefined): the cytotoxicity at 70.5 h is -10.6%.

In the case of `CC(C)CCN1C2(CCN(C(=O)CN(C)C)C2)c2ccccc2S1(=O)=O` (centres undefined), the cytotoxicity at 70.5 h was -5.18%.

For `O=C(c1cccs1)N1CCOCC2(C1)CN(c1cccnc1)C(=O)CO2` (centres undefined), the cytotoxicity at 70.5 h was -16.5%.

For the compound `CN(C)S(=O)(=O)N1C[C@@H]2COC[C@]2(COc2ccccn2)C1`, the cytotoxicity at 70.5 h is -17.2%.

In the case of `O=C([C@H]1C[C@@H]2CCN(c3cccc(F)c3)C[C@H]2O1)N1CCCC1`, the cytotoxicity at 70.5 h is -14.2%.

As for `O=C([C@@H]1C[C@@H]2CCN(c3cccc(F)c3)C[C@H]2O1)N1CCCC1`, the cytotoxicity at 70.5 h was determined as 27.2%.

Take `CC[C@@H]1N(Cc2ccc(C)o2)CCC[C@]12CCC(=O)N2CCOC`: the cytotoxicity at 70.5 h was determined as 16.8%.

For `CC[C@@H]1N(Cc2ccoc2)CCC[C@]12CCC(=O)N2CCOC`, the cytotoxicity at 70.5 h was -5.78%.

Regarding `O=C([C@H]1C[C@@H]2CCN(C3CCOCC3)C[C@H]2O1)N1CCCC1`, the cytotoxicity at 70.5 h is -4.47%.

Take `Cn1cc(CN2C[C@@H]3COC[C@]3(C(=O)NCCc3ccccc3)C2)cn1`: the cytotoxicity at 70.5 h is -8.15%.

As for `CN(C)C(=O)[C@@H]1C[C@@H]2CCN(C3CCOCC3)C[C@H]2O1`, the cytotoxicity at 70.5 h was -4.53%.

On to `CN(C)CCO[C@@H]1CC[C@H]2[C@H]1OCCN2C(=O)c1ccnnc1`, for which the cytotoxicity at 70.5 h worked out at 22.4%.

In the case of `O=C([C@@H]1C[C@@H]2CCN(C3CCOCC3)C[C@H]2O1)N1CCOCC1`, the cytotoxicity at 70.5 h was -0.695%.

`O=C(Cc1cccc(F)c1)N1CCN2C[C@H](Oc3cncnc3)C[C@H]2C1`: the cytotoxicity at 70.5 h was -2.68%.

Consider `CCOC[C@@H]1CC[C@H]2[C@H](CCN2Cc2c(C)noc2C)O1`, for which the cytotoxicity at 70.5 h is -0.0549%.

With `COCCN1C[C@@H](C)[C@@]2(COCCN(C(=O)c3ccno3)C2)C1`, the cytotoxicity at 70.5 h is -1.41%.

In the case of `Cc1noc(C)c1CN1CC[C@H]2O[C@@H](C(=O)N3CCCC3)CC[C@H]21`, the cytotoxicity at 70.5 h was 6.38%.

Regarding `Cc1noc(C)c1CN1CC[C@@H]2O[C@@H](COCC3CC3)CC[C@@H]21`, the cytotoxicity at 70.5 h is -4.44%.

`c1cnc(N2CC3(CCN(Cc4cccnc4)C3)C2)nc1`: the cytotoxicity at 70.5 h is 9.91%.

Consider `CN(C)C[C@H]1C[C@@H]2CN(Cc3ccco3)C[C@@H]2O1`, for which the cytotoxicity at 70.5 h is -16.1%.

Take `O=C1[C@H]2CN(Cc3cccs3)C[C@H]2CN1CCN1CCCC1`: the cytotoxicity at 70.5 h turned out to be 12%.

Turning to `CN(C)CCN1C(=O)CCC12CCN(Cc1cccs1)CC2`, the cytotoxicity at 70.5 h was -11.7%.

For the compound `CC(C)N(C)C[C@H]1C[C@@H]2CN(Cc3ccco3)C[C@@H]2O1`, the cytotoxicity at 70.5 h is -1.96%.

On to `CC(C)Nc1nc(N2CCCC2)nc2c1CCN(S(C)(=O)=O)CC2`, for which the cytotoxicity at 70.5 h was -10.7%.

Take `CN(C)CCOCc1nnc2n1CCN(CC1CC1)CC2`: the cytotoxicity at 70.5 h is 25.8%.

`CCN(CC)Cc1cn2c(n1)CN(C1CCOC1)CC2` (centres undefined): the cytotoxicity at 70.5 h is -4.42%.

Regarding `O=C(c1ccncc1)N1CCN2C[C@H](Oc3cccc(F)c3)C[C@H]2C1`, the cytotoxicity at 70.5 h was -0.421%.

As to `c1ccc(N2CC3(CCN(Cc4cccnc4)C3)C2)nc1`, the cytotoxicity at 70.5 h is -7.68%.

On to `Cc1cccc(CN2Cc3ncn(C)c3C(COCC(=O)N(C)C)C2)n1` (centres undefined), for which the cytotoxicity at 70.5 h is -3.93%.

In the case of `CC1c2ncc(CN3CCN(C)CC3)n2CCN1Cc1cnn(C)c1` (centres undefined), the cytotoxicity at 70.5 h turned out to be 13.6%.

Regarding `Cn1cnc2c1C(COCc1ccccc1)N(Cc1cccnc1)CC2` (centres undefined), the cytotoxicity at 70.5 h is -0.0183%.

For `Cn1cnc2c1C(COCc1cccnc1)N(Cc1nccs1)CC2` (centres undefined), the cytotoxicity at 70.5 h is -1.3%.
